Measurements published in ChEMBL document CHEMBL4390696, “Orientation preferences of hairpin pyrrole-imidazole polyamides toward mCGG site” (Bioorg Med Chem, 2019).

Columns and labels:
[1] = Binding affinity to 5'-ATCGGAT-3' DNA (unknown origin) assessed as association constant incubated for 180 secs by SPR analysis
[2] = Binding preference index, ratio of Kd for 5'-ATmCGGAT-3' DNA (unknown origin) to Kd for 5'-ATCGGAT-3' DNA (unknown origin)
[3] = Binding affinity to 5'-ATmCGGAT-3' DNA (unknown origin) assessed as dissociation rate constant incubated for 180 secs by SPR analysis
[4] = Binding affinity to 5'-ATGGmCAT-3' DNA (unknown origin) in forward orientation assessed as change in melting temperature at 5 uM by UV-vis spectrophotometry
[5] = Binding affinity to mCGG containing DNA assessed as inhibition of mouse TET1 catalytic domain binding to methylated 18 bp DNAs assessed as reduction in TET1-methylated DNA complex formation incubated for 30 mins by electrophoretic mobility shift assay
[6] = Binding affinity to 5'-ATmCGGAT-3' DNA (unknown origin) in forward orientation assessed as change in melting temperature at 5 uM by UV-vis spectrophotometry
[7] = Orientation preference, ratio of change in melting temperature of forward binding site of 5'-ATGGmCAT-3' DNA (unknown origin) to sum of change in melting temperature of forward binding site and change in melting temperature of reverse binding site for 5'-ATGGmCAT-3' DNA (unknown origin)
[8] = Binding affinity to 5'-ATCGGAT-3' DNA (unknown origin) assessed as dissociation constant incubated for 180 secs by SPR analysis
[9] = Binding affinity to 5'-ATmCGGAT-3' DNA (unknown origin) assessed as dissociation constant incubated for 180 secs by SPR analysis
[10] = Binding affinity to 5'-ATCGGAT-3' DNA (unknown origin) assessed as dissociation rate constant incubated for 180 secs by SPR analysis
[11] = Binding affinity to 5'-ATmCGGAT-3' DNA (unknown origin) assessed as association constant incubated for 180 secs by SPR analysis
[12] = Binding affinity to 5'-ATmCGGAT-3' DNA (unknown origin) in reverse orientation assessed as change in melting temperature at 5 uM by UV-vis spectrophotometry
[13] = Orientation preference, ratio of change in melting temperature of forward binding site of 5'-ATmCGGAT-3' DNA (unknown origin) to sum of change in melting temperature of forward binding site and change in melting temperature of reverse binding site for 5'-ATmCGGAT-3' DNA (unknown origin)
[14] = Binding affinity to 5'-ATGGmCAT-3' DNA (unknown origin) in reverse orientation assessed as change in melting temperature at 5 uM by UV-vis spectrophotometry

Ka [1]	Ratio [2]	Dissociation rate constant (koff) [3]	ΔTm [4] [°C]	IC50 [5]	ΔTm [6] [°C]	Ratio [7]	Kd [8] [nM]	Kd [9] [nM]	Dissociation rate constant (koff) [10]	Ka [11]	ΔTm [12] [°C]	Ratio [13]	ΔTm [14] [°C]	IC50 ([5]; read-out: IC50) [nM]	Compound
1.2 ×10⁴ /M/s	1.3	2.6 ×10⁻⁴ /s	21.5	Not Active	1.4	0.94	48	61	5.9 ×10⁻⁴ /s	4.3 ×10³ /M/s					CC(=O)Nc1cc(C(=O)Nc2cn(C)c(C(=O)Nc3cc(C(=O)Nc4cc(C(=O)NCCCC(=O)Nc5cn(C)c(C(=O)Nc6cn(C)c(C(=O)Nc7cc(C(=O)Nc8cc(C(=O)NCCC(=O)NCCCN(C)C)n(C)c8)n(C)c7)n6)n5)n(C)c4)n(C)c3)n2)n(C)c1
9 ×10⁶ /M/s	0.9	6.6 ×10⁻² /s					9.8	8.9	8.9 ×10⁻² /s	7.4 ×10⁶ /M/s	11.8	0.42	16.2		CC(=O)Nc1cc(C(=O)NCCC(=O)Nc2cn(C)c(C(=O)Nc3cc(C(=O)NCCCC(=O)Nc4cc(C(=O)NCCC(=O)Nc5cn(C)c(C(=O)Nc6cn(C)c(C(=O)NCCC(=O)NCCCN(C)C)n6)n5)n(C)c4)n(C)c3)n2)n(C)c1
											1.6	0.19	6.7	2560	CC(=O)Nc1cc(C(=O)Nc2cc(C(=O)Nc3cn(C)c(C(=O)Nc4cc(C(=O)NCCCC(=O)Nc5cc(C(=O)Nc6cc(C(=O)Nc7cn(C)c(C(=O)Nc8cn(C)c(C(=O)NCCC(=O)NCCCN(C)C)n8)n7)n(C)c6)n(C)c5)n(C)c4)n3)n(C)c2)n(C)c1
9.7 ×10⁵ /M/s	0.9	1.6 ×10⁻¹ /s	10.9		7.6	0.59	150	130	1.5 ×10⁻¹ /s	1.2 ×10⁶ /M/s					CC(=O)Nc1cc(C(=O)Nc2cn(C)c(C(=O)Nc3cc(C(=O)Nc4cc(C(=O)NCCCC(=O)Nc5cn(C)c(C(=O)Nc6cn(C)c(C(=O)NCCC(=O)Nc7cc(C(=O)NCCC(=O)NCCCN(C)C)n(C)c7)n6)n5)n(C)c4)n(C)c3)n2)n(C)c1
8.2 ×10⁵ /M/s	4.1	2 ×10⁻¹ /s	12.5		10.8	0.54	150	610	1.2 ×10⁻¹ /s	3.2 ×10⁵ /M/s					CC(=O)Nc1cc(C(=O)Nc2cn(C)c(C(=O)NCCC(=O)Nc3cc(C(=O)NCCCC(=O)Nc4cn(C)c(C(=O)Nc5cn(C)c(C(=O)Nc6cc(C(=O)Nc7cc(C(=O)NCCC(=O)NCCCN(C)C)n(C)c7)n(C)c6)n5)n4)n(C)c3)n2)n(C)c1
3.6 ×10⁴ /M/s	0.9	1.5 ×10⁻² /s					530	480	1.9 ×10⁻² /s	3.1 ×10⁴ /M/s	3.3	0.2	13.1		CC(=O)Nc1cc(C(=O)NCCC(=O)Nc2cn(C)c(C(=O)Nc3cc(C(=O)NCCCC(=O)Nc4cc(C(=O)Nc5cc(C(=O)Nc6cn(C)c(C(=O)Nc7cn(C)c(C(=O)NCCC(=O)NCCCN(C)C)n7)n6)n(C)c5)n(C)c4)n(C)c3)n2)n(C)c1
1.4 ×10⁶ /M/s	1.6	3.2 ×10⁻³ /s					1.7	2.8	2.4 ×10⁻³ /s	1.1 ×10⁶ /M/s	18.1	0.32	8.6		CC(=O)Nc1cc(C(=O)Nc2cn(C)c(C(=O)NCCC(=O)Nc3cc(C(=O)NCCCC(=O)Nc4cn(C)c(C(=O)Nc5cn(C)c(C(=O)NCCC(=O)Nc6cc(C(=O)NCCC(=O)NCCCN(C)C)n(C)c6)n5)n4)n(C)c3)n2)n(C)c1
5.2 ×10⁵ /M/s	2.2	2.3 ×10⁻² /s					21	46	1.1 ×10⁻² /s	5.1 ×10⁵ /M/s	5.9	0.29	14.8		CC(=O)Nc1cc(C(=O)Nc2cc(C(=O)Nc3cn(C)c(C(=O)Nc4cc(C(=O)NCCCC(=O)Nc5cc(C(=O)NCCC(=O)Nc6cn(C)c(C(=O)Nc7cn(C)c(C(=O)NCCC(=O)NCCCN(C)C)n7)n6)n(C)c5)n(C)c4)n3)n(C)c2)n(C)c1
4.2 ×10⁶ /M/s	1	5.3 ×10⁻³ /s					1.7	1.7	7.2 ×10⁻³ /s	3.2 ×10⁶ /M/s	16	0.47	17.9	170	CC(=O)Nc1cc(C(=O)NCCC(=O)Nc2cn(C)c(C(=O)Nc3cc(C(=O)NCC[C@@H](N)C(=O)Nc4cc(C(=O)NCCC(=O)Nc5cn(C)c(C(=O)Nc6cn(C)c(C(=O)NCCC(=O)NCCCN(C)C)n6)n5)n(C)c4)n(C)c3)n2)n(C)c1
2.4 ×10⁶ /M/s	1.1	5.8 ×10⁻³ /s					3.6	2.3	8.6 ×10⁻³ /s	2.5 ×10⁶ /M/s	20.8	0.39	13.3	120	CC(=O)Nc1cc(C(=O)Nc2cn(C)c(C(=O)NCCC(=O)Nc3cc(C(=O)NCC[C@H](N)C(=O)Nc4cn(C)c(C(=O)Nc5cn(C)c(C(=O)NCCC(=O)Nc6cc(C(=O)NCCC(=O)NCCCN(C)C)n(C)c6)n5)n4)n(C)c3)n2)n(C)c1
